Drawing on patent publication US20230133958A1, “COMPOUNDS USEFUL IN MODULATING EGFR AND PI3K” (Mekanistic Therapeutics LLC, priority 2021, published 2023), this text covers inhibition and IC50 for 2 compounds.

This experiment has as its target DNA-PK (Homo sapiens, UniProt P78527). Nature of the experiment: Z'-LYTE / Adapta biochemical kinase assay, DNA-PK. The conditions noted are these: for inhibition at 0.1 µM: concentration of 100 nM/liter, read-out: Percent Inhibition of target enzymes, DNA-PK. The source says:
The Z′-LYTE® biochemical assay employs a fluorescence-based, coupled-enzyme format and is based on the differential sensitivity of phosphorylated and non-phosphorylated peptides to proteolytic cleavage. The peptide substrate is labeled with two fluorophores—one at each end—that make up a FRET pair. In the primary reaction, the kinase transfers the gamma-phosphate of ATP to a single tyrosine, serine or threonine residue in a synthetic FRET-peptide. In the secondary reaction, a site-specific protease recognizes and cleaves non-phosphorylated FRET-peptides. Phosphorylation of FRET-peptides suppresses cleavage by the Development Reagent. Cleavage disrupts FRET between the donor (i.e., coumarin) and acceptor (i.e., fluorescein) fluorophores on the FRET-peptide, whereas uncleaved, phosphorylated FRET-peptides maintain FRET. A ratiometric method, which calculates the ratio (the Emission Ratio) of donor emission to acceptor emission after excitation of the donor fluorophore at 400 nm, is used to quantitate reaction progress.
A significant benefit of this ratiometric method for quantitating reaction progress is the elimination of well-to-well variations in FRET-peptide concentration and signal intensities. As a result, the assay yields very high Z′-factor values (>0.7) at a low percent phosphorylation.
Both cleaved and uncleaved FRET-peptides contribute to the fluorescence signals and therefore to the Emission Ratio. The extent of phosphorylation of the FRET-peptide can be calculated from the Emission Ratio. The Emission Ratio will remain low if the FRET-peptide is phosphorylated (i.e., no kinase inhibition) and will be high if the FRET-peptide is non-phosphorylated (i.e., kinase inhibition).
Enzyme: The ADAPTA universal kinase assay is a homogenous, fluorescent based immunoassay for the detection of ADP. In contrast to ATP depletion assays, the ADAPTA assay is extremely sensitive to ADP formation such that a majority of the signal change occurs in the first 10-20% conversion of ATP to ADP. This makes the ADAPTA universal kinase assay ideally suited for use with low activity kinases.
The principle of the ADAPTA universal kinase assay is outlined below. The assay itself can be divided into two phases: a kinase reaction phase, and an ADP detection phase. In the kinase reaction phase, all components required for the kinase reaction are added to the well, and the reaction is allowed to incubate for 60 minutes. After the reaction, a detection solution consisting of a europium labeled anti-ADP antibody, an Alexa Fluor® 647 labeled ADP tracer, and EDTA (to stop the kinase reaction) is added to the assay well. ADP formed by the kinase reaction (in the absence of an inhibitor) will displace the Alexa Fluor® 647 labeled ADP tracer from the antibody, resulting in a decrease in the TR-FRET signal. In the presence of an inhibitor, the amount of ADP formed by the kinase reaction is reduced, and the resulting intact antibody-tracer interaction results in a high TR-FRET signal.
Test Compounds: The Test Compounds are screened in 1% DMSO (final) in the well. For 10 point titrations, 3-fold serial dilutions are conducted from the starting concentration of the customer’s choosing.
Peptide/Kinase Mixtures: All Peptide/Kinase Mixtures are diluted to a 2X working concentration in the appropriate Kinase Buffer.
ATP Solution: All ATP Solutions are diluted to a 4X working concentration in Kinase Buffer (50 mM HEPES pH 7.5, 0.01% BRIJ-35, 10 mM MgCl2,1 mM EGTA). ATP Km apparent is previously determined using a Z′-LYTE® assay.
Development Reagent Solution: The Development Reagent is diluted in Development Buffer.
Assay Protocol: Bar-coded Corning, low volume NBS, black 384-wellplate (Corning Cat. #4514) 1. 2.5 µL - 4X Test Compound or 100 nL 100X plus 2.4 µL kinase buffer. 2. 5 µL - 2X Peptide/Kinase Mixture. 3. 2.5 µL - 4X ATP Solution. 4. 30-second plate shake. 5. 60-minute Kinase Reaction incubation at room temperature. 6. 5 µL - Development Reagent Solution. 7. […]

By inhibition is commonly meant the change of the read-out against control, counted positive when it falls. Usually IC50 stands for the point on the concentration scale where inhibition reaches its midpoint.

In the case of `CS(=O)(=O)Nc1cc(-c2ccc3ncc(C#N)c(Nc4cccc(Cl)c4F)c3c2)cnc1Cl` [Compound 10, N-[2-chloro-5-[4-(3-chloro-2-fluoro-anilino)-3-cyano-6-quinolyl]-3-pyridyl]methanesulfonamide], the inhibition at 0.1 µM was more than 90%.
Consider `CS(=O)(=O)Nc1cc(-c2ccc3ncnc(Nc4cccc(Cl)c4F)c3c2)cnc1Cl` [Compound 6, N-[2-chloro-5-[4-(3-chloro-2-fluoro-anilino)quinazolin-6-yl]-3-pyridyl] methanesulfonamide], for which the inhibition at 0.1 µM was more than 90%. Further, the half-inhibitory concentration (IC50) (DNA-PK) was not above 2 nM.
